Several values for one entry are separate records, joined by “and”; a condition that tells them apart may be missing. Identical values can stand only once.
Key:
[1] = tested on: guinea pig tracheal smooth muscle cells; experiment: Measurement of cGMP in TSMCs; assay type: cell-based; details: for GMP level: basal 1.18±0.06
Method: Cell Culture of Tracheal Smooth Muscle: Guinea pigs (350-450 g) were injected i.p. with a lethal dose of pentobarbital. The tracheas were excised and cut longitudinally through the cartilage. Using a dissecting microscope, TSM strips were dissected from the surrounding parentchyma. The epithelium was removed from the luminal surface, and bands of TSM were gently separated from the underlying connective tissue. Then TSM strips were chopped into small sections (1 mm^3) and incubated in Hanks' balanced salt solution (138 mM NaCl, 4 mM NaHCO3, 5 mM KCl, 0.3 mM KH2PO4, 0.3 mM Na2HPO4, and 1.0 mM glucose) with 0.05% elastase type IV and 0.2% collagenase type IV (Invitrogen, Carlsbad, Calif.) for 30 min at 37_ with gentle shaking. The solution of dissociated smooth muscle cells was centrifuged (6 min at 500 g), and the pellet was resuspended in 1:1 Dulbecco's modified Eagle's medium/Ham's F-12 medium supplemented with 10% fetal bovine serum, 0.244% NaHCO3, and 1% penicillin/streptomycin. Cells were cultured in 25-cm^2 flasks at 37_ in humidified air containing 5% CO2. Confluent cells were detached with 0.25% trypsin-0.02% EDTA at 37_and then subcultured to establish secondary cultures. Cultures were maintained for no more than four passages. They were identified as smooth muscle cells by the typical hill-and-valley appearance, and cellular homogeneity was further confirmed by the presence of smooth muscle specific _-myosin and _-actin immunoreactivity. Indirect immunofluorescence staining for a variety of antigens was carried out by first plating the cells on chamber slides, fixing the cells in 3.7% formaldehyde-phosphate-buffered saline for 10 min, and permeabilizing the cells with phosphate-buffered saline and 0.1% Triton X-100. Cells were then stained with either a mouse monoclonal antibody directed against the amino-terminal 10 amino acids of _-smooth muscle actin or _-myosin (Roche Diagnostics, Indianapolis, Ind.). All cells were stained with fluorescein-labeled goat anti-mouse IgG antibody (Roche Diagnostics).
Measurement of cAMP and cGMP: Intracellular concentrations of cAMP and cGMP in TSMCs were measured as in our previous reports (Wu B N, Lin R J, Lin C Y, Shen K P, Chiang L C, and Chen I J (2001) A xanthine-based KMUP-1 with cyclic GMP enhancing and K^+ channels opening activities in rat aortic smooth muscle. Br J Pharmacol 134:265-274; Lin R J, Wu B N, Lo Y C, Shen K P, Lin Y T, Huang C H, and Chen I J (2002) KMUP-1 relaxes rabbit corpus cavernosum smooth muscle in vitro and in vivo: involvement of cyclic GMP and K(+) channels, Br J Pharmacol 135:1159-1166). In brief, cells were finally grown in 24-well plates (10^5 cells/well). At confluence, monolayer cells were washed with phosphate-buffered saline and then incubated with KMUP-3 (0.01-100 _M) for 20 min at 37_ in medium. […] The reaction was terminated by replacement of medium with 1 ml of ice-cold 1 N hydrochloric acid. Cells suspensions were sonicated and then centrifuged at 2500 g for 15 min at 4_. Then, the supernatants were lyophilized and the cAMP and cGMP of each sample were determined using commercially available radioimmunoassay kits (GE Healthcare, Little Chalfont, Buckinghamshire, UK).

[2] = target: T1, PDE3 purified from human platelets (Homo sapiens, UniProt Q14432); experiment: Phosphodiesterase activity, PDE3; assay type: biochemical; details: 10 _M compound, n = 3
T1 construct: PDE3 and PDE5 purified from human platelets; from tissue; host or cells: human platelets
Method: PDE3 and PDE5 purified from human platelets and PDE4 purified from human U-937 pronocytic cells were used. Test compound (10 _M) or vehicle was incubated with 0.2 _g of enzyme and 1 _M cAMP containing 0.01 _M [^3H]cAMP in Tris buffer, pH 7.5, for 20 min at 25_. The reaction was terminated by boiling for 2 min, and the resulting cAMP was converted to adenosine by the addition of 10 mg/ml snake venom nucleotidase, which is followed by a further incubation at 37_for 10 min. Unhydrolyzed cAMP was bound to AG1-X2 resin, and the remaining [^3H]adenosine in the aqueous phase was quantitated by scintillation counting.

[3] = tested on: PDE4 purified from human U-937 pronocytic cells; experiment: Phosphodiesterase activity, PDE4; assay type: biochemical; details: 10 _M compound, n = 3
Method: Phosphodiesterase Activity: PDE activity was determined by the method of Nicholson et al. (Nicholson C D, Challiss R A, and Shahid M (1991) Differential modulation of tissue function and therapeutic potential of selective inhibitors of cyclic nucleotide phosphodiesterase isonzymes. Trends Pharmaclo Sci 12:19-27). PDE3 and PDE5 purified from human platelets and PDE4 purified from human U-937 pronocytic cells were used. Test compound (10 _M) or vehicle was incubated with 0.2 _g of enzyme and 1 _M cAMP containing 0.01 _M [^3H]cAMP in Tris buffer, pH 7.5, for 20 min at 25_. The reaction was terminated by boiling for 2 min, and the resulting […] was converted to adenosine by the addition of 10 mg/ml snake venom nucleotidase, which is followed by a further incubation at 37_for 10 min. Unhydrolyzed cAMP was bound to AG1-X2 resin, and the remaining [^3H]adenosine in the aqueous phase was quantitated by scintillation counting.

T1 sequence (Q14432 whole entry): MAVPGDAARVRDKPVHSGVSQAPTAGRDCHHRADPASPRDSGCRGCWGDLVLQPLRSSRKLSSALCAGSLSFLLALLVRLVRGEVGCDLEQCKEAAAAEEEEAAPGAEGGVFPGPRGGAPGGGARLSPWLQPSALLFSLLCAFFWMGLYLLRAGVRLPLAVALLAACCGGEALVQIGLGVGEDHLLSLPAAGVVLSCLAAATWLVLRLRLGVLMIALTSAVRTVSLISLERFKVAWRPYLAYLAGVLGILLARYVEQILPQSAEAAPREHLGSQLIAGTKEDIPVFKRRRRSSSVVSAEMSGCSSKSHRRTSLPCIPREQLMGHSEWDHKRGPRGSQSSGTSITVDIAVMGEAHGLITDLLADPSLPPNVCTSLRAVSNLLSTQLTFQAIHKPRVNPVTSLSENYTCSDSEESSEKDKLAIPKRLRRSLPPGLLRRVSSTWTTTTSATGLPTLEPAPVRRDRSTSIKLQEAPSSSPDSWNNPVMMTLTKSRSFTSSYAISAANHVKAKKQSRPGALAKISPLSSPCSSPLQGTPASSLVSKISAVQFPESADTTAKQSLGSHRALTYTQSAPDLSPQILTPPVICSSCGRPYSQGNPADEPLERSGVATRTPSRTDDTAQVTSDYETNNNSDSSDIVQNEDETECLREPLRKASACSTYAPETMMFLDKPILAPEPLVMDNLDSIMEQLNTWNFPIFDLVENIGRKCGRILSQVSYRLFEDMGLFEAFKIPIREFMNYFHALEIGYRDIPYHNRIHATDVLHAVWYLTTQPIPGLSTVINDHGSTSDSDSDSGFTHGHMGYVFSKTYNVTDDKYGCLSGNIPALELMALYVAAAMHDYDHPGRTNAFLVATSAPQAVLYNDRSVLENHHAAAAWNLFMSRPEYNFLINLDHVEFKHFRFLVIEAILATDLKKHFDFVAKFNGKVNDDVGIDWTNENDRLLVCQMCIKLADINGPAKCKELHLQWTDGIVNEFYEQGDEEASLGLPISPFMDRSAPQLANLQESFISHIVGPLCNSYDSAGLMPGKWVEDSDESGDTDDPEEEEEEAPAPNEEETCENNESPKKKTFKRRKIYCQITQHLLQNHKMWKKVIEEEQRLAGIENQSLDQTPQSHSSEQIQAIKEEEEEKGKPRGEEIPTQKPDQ

SMILES: Cn1c(=O)c2c(ncn2CCN2CCN(c3ccc([N+](=O)[O-])cc3)CC2)n(C)c1=O [KMUP-3]
- GMP level ([1]; 0.01 _M, 20 min): 1.62±0.05 pmol/mg protein
- GMP level ([1]; 0.1 _M, 20 min): 1.73±0.01 pmol/mg protein
- GMP level ([1]; 1 _M, 20 min): 1.75±0.04 pmol/mg protein
- GMP level ([1]; 10 _M, 20 min): 1.86±0.05 pmol/mg protein
- Cyclic GMP level in presence of L-NAME ([1]; 100 _M compound plus L-NAME (100 _M) pretreatment): 1.28 ± 0.01 pmol/mg protein
- Cyclic GMP level in presence of ODQ ([1]; 100 _M compound plus ODQ (10 _M) pretreatment): 1.35 ± 0.04 pmol/mg protein
- amounts of cGMP versus vehicle (FIG. 6) ([1]; 100 _M, 20 min): significantly enhances
- Cyclic GMP level ([1]; 100 _M, 20 min, basal/vehicle 1.18±0.06): 1.98±0.09 pmol/mg protein and 1.98 ± 0.08 pmol/mg protein
- PDE3 inhibition [2]: 55 ± 2.5 %
- PDE4 Inhibition [3]: 48 ± 2.1 %
